Patent publication US20040062807A1, “Biocide compositions and a method for their production” (priority 2001, published 2004)

Columns and labels:
unidentified mold = assay: Growth of mold on petri dishes with fungicide composition in growth media (diameter); assay type: cell-based; conditions: 25° C., 3-5 days
Protocol: The fungus was allowed to grow at 25° C. for 3-5 days. At the end of this period, the diameter of the fungus on the plate was measured. All results were duplicated to assure accuracy.

fungus spores = assay: Fungus spore germination in growth media with fungicide composition (colony count); assay type: cell-based, unidentified mold; conditions: 3-5 days incubation
Protocol: The fungus was allowed to grow at 25° C. for 3-5 days. At the end of this period, the diameter of the fungus on the plate was measured. All results were duplicated to assure accuracy. In a second series of experiments, the growth of fungus spores was measured under the same conditions as those described above. The number of colonies were measured, again after 3-5 days of incubation.

[1] = 15% composition in growth media
[2] = 25% composition in growth media

For `O=C([O-])[O-].[Ca+2]` [Calcium carbonate], the “Growth of Fungus (CFU diameter)” value (unidentified mold; 5% composition in growth media) was 9 cm, the “Growth of Fungus (CFU diameter)” value (unidentified mold; [1]) was 9 cm and the “Growth of Fungus (CFU diameter)” value (unidentified mold; [2]) was 9 cm. The “Fungus Germination (CFU per ml)” value (fungus spores; 5% composition in growth media) was 100 CFU per ml, the “Fungus Germination (CFU per ml)” value (fungus spores; [1]) was 150 CFU per ml and the “Fungus Germination (CFU per ml)” value (fungus spores; [2]) was 110 CFU per ml.
